According to patent US7358359B2, “Antibacterial agents” (University of Washington, priority 2003, dated 2008):

Assays:
[1] = test system: P. aeruginosa PAO200 mexAB; test: MIC broth microdilution, standard panel: P. aeruginosa PAO200 mexAB; type: cell-based; conditions: Pseudomonas aeruginosa, PAO200MEXAB, read-out: MIC P. aeruginosa PAO200 mexAB
Protocol: (§1) Bacterial isolates were cultivated from −70° C. frozen stocks by two consecutive overnight passages at 35° C. in ambient air on 5% blood agar (Remel, Lenexa, Kans.). Clinical isolates tested were from a collection composed of isolates collected during clinical trials and recent clinical isolates obtained from various geographically diverse hospitals in the US. Quality control and primary panel strains were from the American Type Culture Collection (ATCC; Rockville, Md.), with the exception of P. aeruginosa PAO200, a strain with a deletion of the mexABoprM genes that was received from Dr. H. Schweizer. […] Strain Z61 (ATCC 35151) is also hypersusceptible to antibacterials. It is thought that the hypersusceptibility of this strain is the result of increased permeability of its outer membrane (Angus B L et al, Antimicrobial Agents and Chemotherapy 1982 21,299-309: Outer membrane permeability in Pseudomonas aeruginosa: Comparison of a wild-type with an antibacterial-supersusceptible mutant).
(§2) Minimum Inhibitory Concentrations (MICs) were determined by the broth microdilution method in accordance with the National Committee for Clinical Laboratory Standards (NCCLS) guidelines. In brief, organism suspensions were are adjusted to a 0.5 McFarland standard to yield a final inoculum between 3×10^5 and 7×10^5 colony-forming units (CFU)/mL. Drug dilutions and inocula were made in sterile, cation adjusted Mueller-Hinton Broth (Remel). An inoculum volume of 100 μl was added to wells containing 100 μl of broth with 2-fold serial dilutions of drug. All inoculated microdilution trays were incubated in ambient air at 35° C. for 18-24 hours. Following incubation, the lowest concentration of the drug that prevented visible growth was recorded as the MIC. Performance of the assay was monitored by the use of laboratory quality-control strains against tobramycin, that has a defined MIC spectrum, in accordance with NCCLS guidelines.

P. aeruginosa 27853 = test: MIC broth microdilution, standard panel: P. aeruginosa 27853; type: cell-based; conditions: Pseudomonas aeruginosa, standard panel of organisms
Protocol: as §1, §2

E. coli 25922 = test: MIC broth microdilution, standard panel: E. coli 25922; type: cell-based; conditions: Escherichia coli, standard panel of organisms
Protocol: as §1, §2

S. aureus 29213 = test: MIC broth microdilution, standard panel: S. aureus 29213; type: cell-based; conditions: Staphylococcus aureus, standard panel of organisms
Protocol: as §1, §2

P. aeruginosa LpxC = target: T1, P. aeruginosa LpxC (Pseudomonas aeruginosa, UniProt P47205); test: P. aeruginosa LpxC Inhibition Assay; type: biochemical; conditions: 2 nM P. aeruginosa LpxC, 90 min, room temperature; read-out: IC50 (nM), Enzyme inhibitory activity
T1 sequence (P47205 1-303): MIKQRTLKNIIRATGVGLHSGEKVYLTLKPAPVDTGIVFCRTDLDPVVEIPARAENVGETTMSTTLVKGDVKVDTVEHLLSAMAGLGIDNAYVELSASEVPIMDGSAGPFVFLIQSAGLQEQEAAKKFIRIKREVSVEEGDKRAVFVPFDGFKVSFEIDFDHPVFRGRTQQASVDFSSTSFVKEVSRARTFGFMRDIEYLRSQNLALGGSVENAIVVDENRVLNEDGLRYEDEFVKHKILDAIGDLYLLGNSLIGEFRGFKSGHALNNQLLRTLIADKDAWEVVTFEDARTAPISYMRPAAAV
Protocol: The assay followed the general method of Hyland et al (Journal of Bacteriology 1997 179, 2029-2037: Cloning, expression and purification of UDP-3-O-acyl-GlcNAc deacetylase from Pseudomonas aeruginosa: a metalloamidase of the lipid A biosynthesis pathway) and the radiolabeling procedure is according to Kline et al. supra. Briefly, samples were incubated with 2 nM P. aeruginosa LpxC and 150 nM [3H-Ac]-UDP-3-OR-3-hydroxydecanoyl)-GlcNAc in a total volume of 50 uL for 90 min at room temperature. Reactions were carried out in 96-well polypropylene plates in 50 mM sodium phosphate buffer, pH 7.5, containing 1 mg/mL BSA. Reactions were stopped by the addition of 180 uL of a 3% suspension of activated charcoal powder in 100 mM sodium acetate, pH 7.5. Supernatants were clarified by centrifugation. A portion of the clarified supernatant, containing the enzymatically released [3H]-acetate, was transferred to opaque white 96-well plates containing scintillation fluid. The radioactivity was measured in a Perkin-Elmer/Wallac Trilux Microbeta counter.

Row | melting point | SMILES | MIC [1] | MIC (P. aeruginosa 27853) | MIC (E. coli 25922) | MIC (S. aureus 29213) | IC50 (P. aeruginosa LpxC)
1 | 64 to 65 °C | O=C(NO)[C@H]1[C@H](O)CCN1C(=O)c1ccc(OC(F)(F)F)cc1 [Example 3, (2R,3R)-3-hydroxy-1-{[4-(trifluoromethoxy)phenyl]carbonyl}pyrrolidine-2-carbohydroxamic acid] |  |  |  |  | 
2 |  | NC[C@H](NC(=O)c1ccc(C#Cc2ccc(NC(=O)CNc3ccccc3)cc2)cc1)C(=O)NO [Example 572, N-{(1S)-1-(aminomethyl)-2-(hydroxyamino)-2-oxoethyl]-4-[(4-{[(phenylamino)acetyl]amino}phenyl)ethynyl]benzamide] | < 6.25 µg/mL | < 6.25 µg/mL | < 6.25 µg/mL | > 50 µg/mL | < 100 nM
3 |  | C[C@@H](O)[C@H](NC(=O)c1ccc(C#Cc2ccc(NC(=O)CNc3cnccn3)cc2)cc1)C(=O)NO [Example 860, N-{(1S,2R)-2-hydroxy-1-[(hydroxyamino)carbonyl]propyl}-4-[(4-{[(pyrazin-2-ylamino)acetyl]amino}phenyl)ethynyl]benzamide] | < 6.25 µg/mL | < 6.25 µg/mL | < 6.25 µg/mL | > 50 µg/mL | < 100 nM
